{"source": "patent US20230312551A1", "about": "“SALT OF 2-(SUBSTITUTED PYRIMIDINYL) THIAZOLE CARBOXAMIDE COMPOUND, AND COMPOSITION AND USE THEREOF” (SUNSHINE LAKE PHARMA CO., LTD., priority 2020, published 2023)", "key": {"[1]": {"experiment": "Pharmacokinetics test in Beagle dogs, oral capsules", "type": "in vivo", "settings": "male Beagle dogs, oral capsule, 5 mg/kg", "method": "The test samples were filled into capsules for oral administration.\nThree 8-12 kg male Beagle dogs were taken orally administered capsules containing the test sample at a dose of 5 mg/kg, and blood was collected at time points of 0.25, 0.5, 1.0, 2.0, 4.0, 6.0, 8.0 and 24 h. Standard curve was plotted based on concentrations of the samples in a suitable range, the concentration of the test sample in the plasma sample was measured and quantified by AB SCIEX API4000 LC-MS / MS at MRM mode. Pharmacokinetic parameters were calculated according to drug concentration -time curve using a noncompartmental method by WinNonLin 6.3 software."}, "[2]": {"experiment": "Stability test experiment C: storage in PE bag and aluminum foil", "type": "physicochemical", "settings": "for Purity: HPLC", "method": "1.0 g of the test samples were packaged in a single-layer PE bag and aluminum foil, and fasten with cable ties. 6 packs were prepared in total and put in a stable box (40° C. ± 2° C., RH 75% ± 5%, or 25° C. ± 2° C., RH 60% ± 10%). Test samples were taken at 0, 3, and 6 months for HPLC and XRPD detection, respectively."}, "Hygroscopicity test": {"experiment": "Hygroscopicity test", "type": "physicochemical", "settings": "25° C. ± 1° C., RH 80% ± 2%, 24 hours", "method": "1) A dry stoppered glass weighing bottle was placed in a suitable constant temperature desiccator (RH 80% ± 2%) at 25° C. + 1° C. the day before, and accurately weighed (m1).\n2) An appropriate amount of the test sample was taken and spread in the above weighing bottle. The thickness of the test sample was generally about 1 mm, and it was precisely weighed (m2).\n3) The weighing bottle was opened and placed together with the bottle cap under the above constant temperature and humidity conditions for 24 hours.\n4) The weighing bottle was closed with the bottle cap, and accurately weighed (m3). Calculate: weight gain % = (m3-m2) / (m2-m1) × 100%.\n5) Judgment of hygroscopicity results (Chinese Pharmacopoeia 2015 Edition Appendix 9103 Guidelines for the hygroscopicity test of drugs, experimental conditions: 25° C.±1° C., 80%±2% relative humidity): […]"}, "[3]": {"experiment": "Stability test experiment A: suspended and stirred in water, XRPD", "type": "physicochemical", "settings": "for Crystal form (XRPD) after stirring in water: suspended and stirred in water at room temperature for 24 h", "method": "At room temperature, the test samples (50 mg) were added into EP tubes, water (1 mL) was added respectively. The mixture was suspended and stirred at room temperature for 24 h, then suction filtered, and dried for X-ray powder diffraction (XRPD) analysis and identification. Among them, the experimental results of phosphate crystal form A, phosphate crystal form B, phosphate crystal form C, phosphate crystal form G and phosphate crystal form H are shown in FIGS. 20-24."}, "[4]": {"experiment": "Stability test experiment B: high temperature, high humidity and light tests", "type": "physicochemical", "settings": "for Purity: HPLC", "method": "(§1) (1) High temperature test: the test samples were taken into the flat weighing bottle, spread into a thin layer of ≤ 5 mm thick, and stored for 30 days at a humidity of 75% ± 5%, 40° C. ± 2° C. and/or 60° C. ± 2° C. On the 5th, 10th, and 30th days, samples were taken for detection according to the key stability inspection items: the color change of the sample was observed, the purity of the sample was determined by HPLC, and the crystal structure of the sample was determined by XRPD.\nas §1, with “(2)” for “(1)”, “humidity” for “temperature”, “25° C., RH 90% ± 5% and/or RH” for “a humidity of”, “5%.” for “5%, 40° C. ± 2° C. and/or 60° C. ± 2° C.”\n(3) Light test: the test samples were taken into the flat weighing bottle, spread into a thin layer of ≤ 5 mm thick, and placed in a light box (with an ultraviolet lamp) with an open mouth. The test samples were stored under the condition of illuminance of 4500 ± 5001x and ultraviolet light ≥ 0.7w/m^2 for 30 days. Samples were taken on the 5th, 10th and 30th days. The color change of the sample was observed, the purity of the sample was determined by HPLC, and the crystal structure of the sample was determined by XRPD."}, "[5]": {"settings": "25° C. ± 2° C., RH 60% ±10%, 3 months"}, "[6]": {"settings": "25° C. ± 2° C., RH 60% ±10%, 6 months"}, "[7]": {"settings": "40° C. ± 2° C., RH 75% ±5%, 3 months"}, "[8]": {"settings": "40° C. ± 2° C., RH 75% ±5%, 6 months"}, "[9]": {"settings": "High humidity (25° C., RH 90% ± 5%), 5 days"}, "[10]": {"settings": "High humidity (25° C., RH 90% ± 5%), 10 days"}, "[11]": {"settings": "High humidity (25° C., RH 90% ± 5%), 30 days"}, "[12]": {"settings": "High temperature (60° C., RH 75%±5%), 5 days"}, "[13]": {"settings": "High temperature (60° C., RH 75%±5%), 10 days"}, "[14]": {"settings": "High temperature (60° C., RH 75%±5%), 30 days"}}}
{"smiles": "Cc1nc(-c2cnc(N3CCN(CCCc4c[nH]c5ccc(C#N)cc45)CC3)nc2)sc1C(N)=O", "note": "[Example 2, 2-(2-(4-(3-(5-cyano-1H-indol-3-yl)propyl)piperazin-1-yl)pyrimidin-5-yl)-4-methylthiazol-5-carboxamide]", "values": [{"measurement": "Cmax", "setting": "[1]; dog, plasma", "value": 496, "unit": "ng/mL"}, {"measurement": "Tmax", "setting": "[1]; dog, plasma", "value": 1.67, "unit": "h"}, {"measurement": "AUClast", "setting": "[1]", "value": 5240, "unit": "h^∗ng/ml"}, {"measurement": "Outward", "setting": "[2]; 0 month", "value": "Light yellow solid"}, {"measurement": "Purity", "setting": "[2]; 0 month", "value": 99.62, "unit": "%"}, {"measurement": "Outward", "setting": "[2]; [5]", "value": "Light yellow solid"}, {"measurement": "Purity", "setting": "[2]; [5]", "value": 99.63, "unit": "%"}, {"measurement": "Outward", "setting": "[2]; [6]", "value": "Light yellow solid"}, {"measurement": "Purity", "setting": "[2]; [6]", "value": 99.64, "unit": "%"}, {"measurement": "Outward", "setting": "[2]; [7]", "value": "Light yellow solid"}, {"measurement": "Purity", "setting": "[2]; [7]", "value": 99.63, "unit": "%"}, {"measurement": "Outward", "setting": "[2]; [8]", "value": "Light yellow solid"}, {"measurement": "Purity", "setting": "[2]; [8]", "value": 99.64, "unit": "%"}, {"measurement": "Crystal structure (XRPD)", "setting": "[2]; stored up to 6 months at 40° C./RH 75% or 25° C./RH 60% in PE bag and aluminum foil", "value": "have not changed"}, {"measurement": "Conclusion (hygroscopicity feature)", "setting": "Hygroscopicity test", "value": "Slightly hygroscopicity (Less than 2% but not less than 0.2%)"}, {"measurement": "The hygroscopicity gain", "setting": "Hygroscopicity test", "value": 0.32, "unit": "%"}, {"measurement": "Crystal structure after stirring in water", "setting": "[3]; stirred in water at room temperature or under heating conditions", "value": "does not change"}, {"measurement": "Crystal form (XRPD) after stirring in water", "setting": "[3]; listed as phosphate crystal form A", "value": "crystal form did not change"}, {"measurement": "Outward", "setting": "[4]; 0 day", "value": "Light yellow solid"}, {"measurement": "Purity", "setting": "[4]; 0 day", "value": 99.24, "unit": "%"}, {"measurement": "Outward", "setting": "[4]; [9]", "value": "Light yellow solid"}, {"measurement": "Purity", "setting": "[4]; [9]", "value": 99.27, "unit": "%"}, {"measurement": "Outward", "setting": "[4]; [10]", "value": "Light yellow solid"}, {"measurement": "Purity", "setting": "[4]; [10]", "value": 99.21, "unit": "%"}, {"measurement": "Outward", "setting": "[4]; [11]", "value": "Light yellow solid"}, {"measurement": "Purity", "setting": "[4]; [11]", "value": 99.22, "unit": "%"}, {"measurement": "Outward", "setting": "[4]; [12]", "value": "Light yellow solid"}, {"measurement": "Purity", "setting": "[4]; [12]", "value": 99.26, "unit": "%"}, {"measurement": "Outward", "setting": "[4]; [13]", "value": "Light yellow solid"}, {"measurement": "Purity", "setting": "[4]; [13]", "value": 99.23, "unit": "%"}, {"measurement": "Outward", "setting": "[4]; [14]", "value": "Light yellow solid"}, {"measurement": "Purity", "setting": "[4]; [14]", "value": 99.24, "unit": "%"}, {"measurement": "Outward", "setting": "[4]; Light, 5 days", "value": "Yellow solid"}, {"measurement": "Purity", "setting": "[4]; Light, 5 days", "value": 99.25, "unit": "%"}, {"measurement": "Outward", "setting": "[4]; Light, 10 days", "value": "Yellow solid"}, {"measurement": "Purity", "setting": "[4]; Light, 10 days", "value": 99.21, "unit": "%"}, {"measurement": "Outward", "setting": "[4]; Light, 30 days", "value": "Yellow solid"}, {"measurement": "Purity", "setting": "[4]; Light, 30 days", "value": 99.10, "unit": "%"}, {"measurement": "XRPD pattern", "setting": "[4]; high temperature (60° C., RH 75% ± 5%), high humidity (25° C., RH 90% ± 5%) or light, 30 days", "value": "basically unchanged"}]}
{"smiles": "Cc1nc(-c2cnc(N3CCN(CCCc4c[nH]c5ccc(C#N)cc45)CC3)nc2)sc1C(N)=O", "note": "[Example 3, 2-(2-(4-(3-(5-cyano-1H-indol-3-yl)propyl)piperazin-1-yl)pyrimidin-5-yl)-4-methylthiazol-5-carboxamide]", "values": [{"measurement": "Crystal form (XRPD) after stirring in water", "setting": "[3]; listed as phosphate crystal form B", "value": "crystal form changed"}]}
{"smiles": "Cc1nc(-c2cnc(N3CCN(CCCc4c[nH]c5ccc(C#N)cc45)CC3)nc2)sc1C(N)=O", "note": "[Example 4, 2-(2-(4-(3-(5-cyano-1H-indol-3-yl)propyl)piperazin-1-yl)pyrimidin-5-yl)-4-methylthiazol-5-carboxamide]", "values": [{"measurement": "Crystal form (XRPD) after stirring in water", "setting": "[3]; listed as phosphate crystal form C", "value": "crystal form changed"}]}
{"smiles": "Cc1nc(-c2cnc(N3CCN(CCCc4c[nH]c5ccc(C#N)cc45)CC3)nc2)sc1C(N)=O", "note": "[Example 5, 2-(2-(4-(3-(5-cyano-1H-indol-3-yl)propyl)piperazin-1-yl)pyrimidin-5-yl)-4-methylthiazol-5-carboxamide]", "values": [{"measurement": "Crystal form (XRPD) after stirring in water", "setting": "[3]; listed as phosphate crystal form G", "value": "crystal form changed"}]}
{"smiles": "Cc1nc(-c2cnc(N3CCN(CCCc4c[nH]c5ccc(C#N)cc45)CC3)nc2)sc1C(N)=O", "note": "[Example 6, 2-(2-(4-(3-(5-cyano-1H-indol-3-yl)propyl)piperazin-1-yl)pyrimidin-5-yl)-4-methylthiazol-5-carboxamide]", "values": [{"measurement": "Crystal form (XRPD) after stirring in water", "setting": "[3]; listed as phosphate crystal form H", "value": "crystal form changed"}]}
